Laboratory results as given in ChEMBL document CHEMBL1154466, “3D and quantum QSAR of non-benzodiazepine compounds” (Eur J Med Chem, 2008).
Several values for one entry are separate records, joined by “and”; a condition that tells them apart may be missing. Equal values may be shown once.

assay: Displacement of [3H]diazepam from benzodiazepine receptor in rat brain; assay type: tissue-based

Row | Compound | pIC50
1 | CN(C)c1ncnc2c1ncn2Cc1ccccc1Cl | 4.89
2 | CN(C)c1ncnc2c1nc(Br)n2Cc1cccc(NS(C)(=O)=O)c1 | 5.82
3 | CN(C)c1ncnc2c1nc(O)n2Cc1cccc(NC=O)c1 | 6.89
4 | CNc1nc2c(N(C)C)ncnc2n1Cc1cccc(NC=O)c1 | 6.44
5 | CN(C)c1ncnc2c1nc(O)n2Cc1cccc(N)c1 | 5.74
6 | CN(C)c1ncnc2c1nc(N(C)C)n2Cc1cccc(NC=O)c1 | 6.96
7 | CNc1nc2c(N(C)C)ncnc2n1Cc1ccccc1 | 4.77
8 | CN(C)c1ncnc2c1ncn2Cc1cccc(NC=O)c1 | 7.47
9 | CN(C)c1ncnc2c1nc(Cl)n2Cc1cccc(N)c1 | 6.72
10 | COC(=O)Nc1cccc(Cn2c(Br)nc3c(N(C)C)ncnc32)c1 | 5.28
11 | COc1nc2c(N(C)C)ncnc2n1Cc1cccc(N)c1 | 6
12 | CN(C)c1ncnc2c1nc(N(C)C)n2Cc1ccccc1 | 5.24
13 | COc1nc2c(N(C)C)ncnc2n1Cc1ccccc1 | 5.27
14 | CC(C)(C)OC(=O)c1cc2c3ccccc3nc-2c[nH]1 | 8
15 | CNc1nc2c(N(C)C)ncnc2n1Cc1cccc(N)c1 | 5.14
16 | c1ccc(COc2nccc3c2[nH]c2ccccc23)cc1 | 6
17 | CCOC(=O)c1cc2c(cn1)[nH]c1ccccc12 | 8.3
18 | CCc1nc(C(=O)OC)cc2c1[nH]c1ccccc12 | 5.12
19 | CCC(C)Oc1nccc2c1[nH]c1ccccc12 (centres undefined) | 6.33
20 | CC(C)CCOc1nccc2c1[nH]c1ccccc12 | 6.27
21 | CC(C)Oc1cc2c(cn1)[nH]c1ccccc12 | 6.29
22 | CCCCOc1cc2c(cn1)[nH]c1ccccc12 | 7.01
23 | CC(C)(C)COc1nccc2c1[nH]c1ccccc12 | 7.02
24 | COc1cc2c(cn1)[nH]c1ccccc12 | 6.91
25 | Clc1cc2c(cn1)[nH]c1ccccc12 | 7.35
26 | CCOc1cc2c(cn1)[nH]c1ccccc12 | 7.62
27 | CCCOc1cc2c(cn1)[nH]c1ccccc12 | 7.96

Row | Compound | pIC50
28 | CC(C)(C)C(=O)c1nccc2c1[nH]c1ccccc12 | 6.45
29 | CC(C)COc1nccc2c1[nH]c1ccccc12 | 7.03
30 | CCCC(=O)c1cc2c(cn1)[nH]c1ccccc12 | 7.64
31 | CCCCc1cc2c(cn1)[nH]c1ccccc12 | 6.64
32 | O=[N+]([O-])c1cc2c3ccccc3nc-2c[nH]1 | 6.9
33 | CN(C)c1ncnc2c1nc(Br)n2Cc1cccc(NC=O)c1 | 7.96
34 | CN(C)c1ncnc2c1nc(N(C)C)n2Cc1cccc(N)c1 | 6.22
35 | Cc1nc2c(N(C)C)ncnc2n1Cc1ccccc1 | 5.07
36 | CN(C)c1ncnc2c1nc(Br)n2Cc1cccc(N)c1 | 6.96
37 | CC(=O)Nc1cccc(Cn2c(Br)nc3c(N(C)C)ncnc32)c1 | 6.08
38 | CN(C)c1ncnc2c1nc(Br)n2Cc1ccccc1 | 5.52
39 | CN(C)c1ncnc2c1nc(Br)n2Cc1cccc(NC(N)=O)c1 | 7.6
40 | CN(C)c1ncnc2c1nc(Br)n2Cc1cccc(NC(=O)c2ccccc2)c1 | 5.1
41 | CC(C)(C)COC(=O)c1cc2c3ccccc3nc-2c[nH]1 | 6.12
42 | CN(C)c1ncnc2c1ncn2Cc1ccccc1 | 4.89
43 | CN(C)c1ncnc2c1ncn2Cc1ccccc1F | 5.27
44 | CN(C)c1ncnc2c1ncn2Cc1cccc(F)c1 | 5.14
45 | CN(C)c1ncnc2c1ncn2Cc1cccc(O)c1 | 5.92
46 | CN(C)c1ncnc2c1ncn2Cc1cccc(N)c1 | 6.05
47 | CC(=O)Oc1cccc(Cn2cnc3c(N(C)C)ncnc32)c1 | 6.36
48 | CN(C)c1ncnc2c1ncn2Cc1cccc(OC(=O)C(C)(C)C)c1 | 5.8
49 | COc1ccccc1Cn1cnc2c(N(C)C)ncnc21 | 4.7
50 | CN(C)c1ncnc2c1ncn2Cc1cccc(CO)c1 | 5.3
51 | COC(=O)c1cc2c(cn1)[nH]c1ccccc12 [BETA-CCM] | 8.3
52 | Cc1nccc2c1[nH]c1ccccc12 [HARMAN] | 4.91
53 | c1ccc2c(c1)[nH]c1cnccc12 [NORHARMANE] | 5.79

assay: Displacement of [3H]flunitrazepam from benzodiazepine receptor in rat forebrain

Row | Compound | pIC50
54 | CCCCc1c(OC)nc2nc(C(=O)c3ccccc3)cn2c1CC | 7.469
55 | CCCCc1cc(OC)nc2nc(C(=O)c3ccccc3)cn12 | 6.469
56 | CCc1cc(OC)nc2nc(C(=O)c3ccccc3)cn12 | 6.53
57 | CCCc1c(SC)nc2nc(C(=O)c3ccccc3)cn2c1CC | 7.328
58 | CCc1c(SC)nc2nc(C(=O)c3ccccc3)cn2c1C | 7.921
59 | CCCc1c(OC)nc2nc(C(=O)c3ccccc3)cn2c1CC | 7.469
60 | CSc1cc(C)n2cc(C(=O)c3ccccc3)nc2n1 | 6.721
61 | CCCc1c(OC)nc2nc(C(=O)c3ccccc3)cn2c1C | 7.071
62 | COc1nc2nc(C(=O)c3ccccc3)cn2c(C)c1OC | 6
63 | CCc1cn2cc(C(=O)c3ccccc3)nc2nc1OC | 5.824
64 | C=CCc1c(SC)nc2nc(C(=O)c3ccccc3)cn2c1C | 8.097
65 | CCCCc1c(OC)nc2nc(C(=O)c3ccccc3)cn2c1C | 7.377
66 | CCc1c(OC)nc2nc(C(=O)c3ccccc3)cn2c1CC | 6.971
67 | CCCc1cc(OC)nc2nc(C(=O)c3ccccc3)cn12 | 6.272
68 | COc1cc(C)n2cc(C(=O)c3ccccc3)nc2n1 | 6.097
69 | CCCc1cc(SC)nc2nc(C(=O)c3ccccc3)cn12 | 7.051
70 | COc1nc2nc(C(=O)c3ccccc3)cn2c(C)c1CC1=CC1 | 7.523 and 7.347
71 | CCc1c(CC2=CC2)c(OC)nc2nc(C(=O)c3ccccc3)cn12 | 7.377
72 | CCc1c(OC)nc2nc(C(=O)c3ccccc3)cn2c1C [DIVAPLON] | 7.252

assay: Displacement of [3H]diazepam from benzodiazepine receptor

Row | Compound | pIC50
73 | CCOC(=O)c1ncc2c(c1COC)-c1cc(O)ccc1C2 | 9.05
74 | CCCOc1cc2c(cn1)Cc1ccccc1-2 | 7.96
75 | Nc1cc2c(cn1)Cc1ccccc1-2 | 4.6
76 | Oc1cc2c(cn1)Cc1ccccc1-2 | 5.4
77 | CCOC(=O)c1ncc2c(c1COC)-c1cc(OCc3ccccc3)ccc1C2C (centres undefined) | 6.02
78 | Clc1cc2c(cn1)Cc1ccccc1-2 | 7.35
79 | O=[N+]([O-])c1cc2c(cn1)Cc1ccccc1-2 | 6.9
80 | S=C=Nc1cc2c(cn1)Cc1ccccc1-2 | 8.1
81 | CCOC(=O)c1ncc2c(c1CC)-c1cc(OCc3ccccc3)ccc1C2 | 7.66
82 | CCOC(=O)c1cc2c(cn1)Cc1ccc(OCc3ccccc3)cc1-2 | 8.05
83 | CCOC(=O)c1ncc2c(c1COC)-c1cc(OCc3ccccc3)ccc1C2 | 9
84 | COc1cc2c(cn1)Cc1ccccc1-2 | 6.91
85 | CCOC(=O)c1ncc2c(c1COC)-c1cc(OC)ccc1C2 | 9.3
86 | CCOC(=O)c1ncc2c(c1COC)-c1ccccc1C2 | 8.64
87 | CCOc1cc2c(cn1)Cc1ccccc1-2 | 7.62
88 | COC(=O)c1cc2c(cn1)Cc1ccccc1-2 | 8.3
89 | c1ccc2c(c1)Cc1cnccc1-2 | 5.79
